# According to article PMC12560828, “Chemical structure drives developmental toxicity of alkyl-substituted naphthalenes in zebrafish” (Environment international, 2025):
# What was measured:
# [1] = tested on: early life stage zebrafish (Danio rerio) embryos; assay: Developmental toxicity morphology screen, sealed rotating vial exposure; assay type: in vivo; design: bmd, MO24 / bmd, MORT / bmd, ANY_ / bmd, AXIS / bmd, CRAN / bmd, EDEM / bmd, LTRK / bmd, MUSC / bmdL, ANY_ / bmdU, ANY_ / bmdL, AXIS / bmdU, AXIS / bmdL, CRAN / bmdU, CRAN / bmdL, EDEM / bmdU, EDEM / bmdL, LTRK / bmdU, LTRK / bmdL, MO24 / bmdU, MO24 / bmdL, MORT / bmdU, MORT: unit not given here; details: for BMC50 Any effect: Fig. 2 heatmap, exposure 6-24 hpf in vials, summary of all endpoints; for any effect BMD50: SI-T5; for bmd, MORT / bmdL, MORT / bmdU, MORT: endpoint MORT; for bmd, EDEM / bmdL, EDEM / bmdU, EDEM: morphology endpoint EDEM
# Description: (§1) When embryos were 6 hpf they were bleached in groups of 1000 or less to limit bacterial growth in sealed vials. Embryos were placed in a strainer for transfer between solutions in 500 mL containers. […] Pools of eight embryos were placed into 2 mL clear glass screw cap exposure vials with polyvinyl-faced pulp liner (Avantar Radnor, PA, United States) using a glass Pasteur pipette. Excess EM was removed, and 2 mL of fresh EM was immediately added. A total of 10 uL of 200x working stock (in DMSO) was added to each vial, then immediately capped and inverted three times to mix. […] Vials were loaded into a custom 3D printed vial holder for slow end-over-end rotation in a dark 28 °C incubator overnight. […] At 24 hpf, embryos were removed from exposure vials and singulated into 96-well plates loaded with 100 μL chemical-free EM. Each exposure vial group was maintained in plate columns. After loading into 96-well plates, embryos were assessed for 24-hour mortality. For the remainder of the exposure, plates were kept stationary at 28 °C in the dark, until 120 hpf when morphology screening and the larval photo motor response (LPR) assay were conducted, section 2.3.2 and section 2.3.3, respectively.
# Each treatment group was replicated over four vials, resulting in 32 embryos per treatment, split over two replicate 96-well plates per chemical. […] All reported concentrations were nominal water concentrations and are included in SI-T4.
# At 24 hpf embryos were assessed for mortality (MO24). At 120 hpf embryos were assessed for abnormality in […] morphological endpoints: mortality (MORT), edemas (EDEM), bent axis (AXIS), touch response (TCHR), craniofacial (CRAN), muscular/cardiovascular (MUSC), lower trunk (LRTK), brain (BRAN), skin (SKIN), and notochord malformations (NC). Morphological assessments were made by a team of three to four individuals. The team was blinded to the identity, plate layout, and concentrations of the chemicals, thereby minimizing bias in morphological screening assessment. To ensure the assessments were consistent, concentration–response reproducibility of a parathion ethyl quality control plate was performed along with each experimental exposure set up. Details of all measured endpoints can be found at Developmental toxicity zebrafish phenotype atlas. […] Each endpoint was scored as a binary presence/absence and scores were compiled into an “Any effect” endpoint, the presence of abnormality in any individual endpoint.
# The Any effect percent was used to calculate the BMC50, 50 % change relative to the background for each endpoint and chemical. All values were reported as the nominal exposure concentration.
# [2] = tested on: zebrafish larvae, 120 hpf; assay: Larval photomotor response (LPR) assay after vial exposure; assay type: in vivo, Danio rerio; details: LPR
# Description: as §1
# Each treatment group was replicated over four vials, resulting in 32 embryos per treatment, split over two replicate 96-well plates per chemical. […] Vial groups of plated larvae were tracked to assess the impact of the vial on the results. All reported concentrations were nominal water concentrations and are included in SI-T4.
# The LPR assay was conducted at 120 hpf. […] Larval movement was tracked throughout minutes 6–24. Animals dead or morphologically abnormal were excluded from the analysis, and if more than 30 % of the wells in a treatment group were excluded, the treatment was removed.
# Movement values were binned into 6s intervals, log normalized and used to calculate area under the curve (AUC). AUC values from the first cycle after calibration were used to calculate the LEL for each period (light and dark).
# [3] = period dark, round 1, conc 3.125
# [4] = period dark, round 1, conc 6.25
# [5] = period dark, round 1, conc 12.5
# [6] = period light, round 1, conc 3.125
# [7] = period light, round 1, conc 6.25
# [8] = period light, round 1, conc 12.5
smiles,measurement,setting,value
"CC(C)(C)c1ccc2ccc(C(C)(C)C)cc2c1 [2,7-di-tert-butylnaphthalene]",BMC50 EDEM (pericardial and/or yolk sac edema at 120 hpf),"[1]; Fig. 2, nominal concentration",33.6 µM
same,BMC50 MO24 (mortality at 24 hpf),"[1]; Fig. 2, nominal concentration",no MO24 BMC50
same,BMC50 MORT (mortality at 120 hpf),"[1]; Fig. 2, nominal concentration",41.3 µM
same,BMC50 Any effect,[1]; nominal concentration,24.7 µM
same,any effect BMD50,[1],24.66 µM
same,"bmd, ANY_","[1]; benchmark dose, morphology endpoint ANY_ (any effect)",24.6598
same,"bmd, MORT",[1]; benchmark dose,41.3049
same,"bmdL, MORT",[1]; lower limit of benchmark dose,34.7649
same,"bmdU, MORT",[1]; upper limit of benchmark dose,51.9197
same,"bmd, EDEM",[1]; benchmark dose,33.6463
same,"bmdL, EDEM",[1]; lower limit of benchmark dose,26.4386
same,"bmdU, EDEM",[1]; upper limit of benchmark dose,67.8341
same,fold_change,[2]; [3],-0.2175
same,fold_change,[2]; [4],-0.4542
same,fold_change,[2]; [5],-0.5803
same,fold_change,"[2]; period dark, round 1, conc 25",-1.44
same,fold_change,[2]; [6],0.7527
same,fold_change,[2]; [7],0.7301
same,fold_change,[2]; [8],0.5841
same,fold_change,"[2]; period light, round 1, conc 25",0.3464
CCCCc1ccc2ccccc2c1 [2-butylnaphthalene],BMC50 AXIS (curved or bent body axis at 120 hpf),"[1]; Fig. 2, nominal concentration",31.7 µM
same,BMC50 CRAN (craniofacial malformation at 120 hpf),"[1]; Fig. 2, nominal concentration",32.3 µM
same,BMC50 EDEM (pericardial and/or yolk sac edema at 120 hpf),"[1]; Fig. 2, nominal concentration",37.1 µM
same,BMC50 LTRK (lower trunk and/or caudal fin at 120 hpf),"[1]; Fig. 2, nominal concentration",32.6 µM
same,BMC50 MO24 (mortality at 24 hpf),"[1]; Fig. 2, nominal concentration",45.9 µM
same,BMC50 MORT (mortality at 120 hpf),"[1]; Fig. 2, nominal concentration",29.2 µM
same,BMC50 Any effect,[1]; nominal concentration,13.8 µM
same,any effect BMD50,[1],13.76 µM
same,"bmd, MO24","[1]; endpoint MO24, benchmark dose",45.9226
same,"bmdL, MO24","[1]; endpoint MO24, lower limit of benchmark dose",34.5575
same,"bmdU, MO24","[1]; endpoint MO24, upper limit of benchmark dose",71.8256
same,"bmd, MORT",[1]; benchmark dose,29.2083
same,"bmdL, MORT",[1]; lower limit of benchmark dose,24.1073
same,"bmdU, MORT",[1]; upper limit of benchmark dose,36.5916
same,"bmd, ANY_","[1]; morphology endpoint ANY_, benchmark dose",13.7563
same,"bmdL, ANY_","[1]; morphology endpoint ANY_, lower limit of benchmark dose",11.3562
same,"bmdU, ANY_","[1]; morphology endpoint ANY_, upper limit of benchmark dose",16.7056
same,"bmd, AXIS","[1]; morphology endpoint AXIS, benchmark dose",31.7332
same,"bmdL, AXIS","[1]; morphology endpoint AXIS, lower limit of benchmark dose",20.8074
same,"bmdU, AXIS","[1]; morphology endpoint AXIS, upper limit of benchmark dose",68.8189
same,"bmd, CRAN","[1]; morphology endpoint CRAN, benchmark dose",32.2639
same,"bmdL, CRAN","[1]; morphology endpoint CRAN, lower limit of benchmark dose",21.7357
same,"bmdU, CRAN","[1]; morphology endpoint CRAN, upper limit of benchmark dose",64.257
same,"bmd, EDEM",[1]; benchmark dose,37.0933
same,"bmdL, EDEM",[1]; lower limit of benchmark dose,25.0511
same,"bmdU, EDEM",[1]; upper limit of benchmark dose,73.9212
same,"bmd, LTRK","[1]; morphology endpoint LTRK, benchmark dose",32.6419
same,"bmdL, LTRK","[1]; morphology endpoint LTRK, lower limit of benchmark dose",22.6339
same,"bmdU, LTRK","[1]; morphology endpoint LTRK, upper limit of benchmark dose",59.8583
same,fold_change,[2]; [3],-0.7788
same,fold_change,[2]; [4],-1.395
same,fold_change,[2]; [5],-2.279
same,fold_change,[2]; [6],0.2651
same,fold_change,[2]; [7],-0.6707
same,fold_change,[2]; [8],0.432
Cc1ccc2ccccc2c1 [2-methylnaphthalene],morphological effects (BMC50 for any morphological endpoint),"[1]; 0-50 μM, result in words",no morphological BMC50 values
same,fold_change,[2]; [3],0.03896
same,fold_change,[2]; [4],-0.06284
same,fold_change,[2]; [5],0.2024
same,fold_change,"[2]; period dark, round 1, conc 25",0.07059
same,fold_change,"[2]; period dark, round 1, conc 50",-0.2156
same,fold_change,[2]; [6],-0.3603
same,fold_change,[2]; [7],-0.05115
same,fold_change,[2]; [8],0.6486
same,fold_change,"[2]; period light, round 1, conc 25",0.2057
same,fold_change,"[2]; period light, round 1, conc 50",0.2253
